This is an account of results in article PMC9940649, “Phytochemical Comparison of Medicinal Cannabis Extracts and Study of Their CYP-Mediated Interactions with Coumarinic Oral Anticoagulants” (Medical Cannabis and Cannabinoids, 2023).

Structures are written as SMILES. Read-outs that look alike come from different tables or passages of the source.

Data set [1] deals with T1, CYP3A4 (Homo sapiens, UniProt P08684). Description: CYP inhibition assay in pooled HLM, specific substrate testosterone. As for the experimental part: (§1) Briefly, 96-well incubation plates were prepared by adding inhibitors, substrates, and extracts (all dissolved in ethanol) to the respective wells. The 96-well plates were then placed on a thermoshaker (37°C, 500 rpm) until full evaporation of the solvent. […] HLM were thawed on ice, diluted in 100 mM phosphate buffer (pH 7.4) (final concentration 0.2 mg/mL), and added to the incubation plate that was prepared with the inhibitors and substrates. For preincubation, the plates were shaken at 500 rpm on an orbital shaker for 15 min at 37°C. […] The formation of hydroxylated metabolites was followed using UHPLC-MS/MS quantification with electrospray ionization in positive mode, as described in online supplementary material 2.
T1 sequence (P08684 2-503 limits assumed): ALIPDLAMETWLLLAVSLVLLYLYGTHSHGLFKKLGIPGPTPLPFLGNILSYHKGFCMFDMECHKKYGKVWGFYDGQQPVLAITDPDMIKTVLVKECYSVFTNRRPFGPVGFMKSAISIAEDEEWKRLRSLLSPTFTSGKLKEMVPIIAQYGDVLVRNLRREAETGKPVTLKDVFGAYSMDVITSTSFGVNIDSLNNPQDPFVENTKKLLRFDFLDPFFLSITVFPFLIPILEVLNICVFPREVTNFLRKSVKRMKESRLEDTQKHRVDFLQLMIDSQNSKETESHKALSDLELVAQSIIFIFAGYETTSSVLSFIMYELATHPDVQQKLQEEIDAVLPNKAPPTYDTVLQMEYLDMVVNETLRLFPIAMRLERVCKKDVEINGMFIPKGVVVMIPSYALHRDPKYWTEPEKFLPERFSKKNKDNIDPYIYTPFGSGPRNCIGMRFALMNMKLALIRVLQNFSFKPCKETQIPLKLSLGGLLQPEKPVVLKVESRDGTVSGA
(§2) GraphPad Prism, version 9.0.1, was used for fitting of IC50 curves (inhibitor vs. normalized response, variable slope).

Data set [2] concerns the target T2, CYP2C9 (Homo sapiens, UniProt P11712). Description: CYP inhibition assay in pooled HLM, specific substrate tolbutamide. Here is the method: as §1, §2
In data set [3] the target is T2, CYP2C9. Description: Inhibition of warfarin hydroxylation in pooled HLM (major pathway via CYP2C9). The conditions noted are these: both, microsomes, pH 7.4. As for the experimental part:
as §1, §2

In data set [4] the target is T2, CYP2C9. The conditions noted are these: read-out: Literature Ki in pooled HLM; substrate warfarin; ref PMID 21356216; cited from earlier work.
Data set [5] has as its target T2, CYP2C9. Description: Inhibition of acenocoumarol hydroxylation in pooled HLM (major pathway via CYP2C9). The following applies: both, microsomes, pH 7.4. Here is the method: as §1, §2
Data set [6] addresses T1, CYP3A4. The following applies: read-out: Literature IC50 in pooled HLM; substrate testosterone; ref PMID 32587099; cited from earlier work.
For data set [7] the following is noted: at 0.5 mg/mL protein concentration; cited from earlier work.

T2 sequence (P11712 whole entry): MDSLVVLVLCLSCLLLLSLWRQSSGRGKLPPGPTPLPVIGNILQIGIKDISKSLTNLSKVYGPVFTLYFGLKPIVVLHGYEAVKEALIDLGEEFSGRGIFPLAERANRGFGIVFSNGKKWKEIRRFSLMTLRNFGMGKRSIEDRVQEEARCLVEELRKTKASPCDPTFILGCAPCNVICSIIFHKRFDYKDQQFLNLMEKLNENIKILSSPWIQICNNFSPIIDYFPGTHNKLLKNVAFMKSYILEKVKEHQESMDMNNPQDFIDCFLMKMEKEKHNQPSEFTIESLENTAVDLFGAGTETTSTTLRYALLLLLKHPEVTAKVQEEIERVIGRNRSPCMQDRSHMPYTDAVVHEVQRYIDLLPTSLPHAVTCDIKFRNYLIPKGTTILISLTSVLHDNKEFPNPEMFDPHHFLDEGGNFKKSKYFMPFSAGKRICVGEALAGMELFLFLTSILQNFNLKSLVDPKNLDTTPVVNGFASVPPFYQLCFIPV

One may read the IC50 as the concentration needed to halve the response being measured. In general, Ki refers to a dissociation constant, usually derived from enzyme kinetics or from competition with a known ligand. For orientation: fraction unbound means free concentration divided by total concentration. In the case of `CCCCCc1cc(O)c2c(c1)OC(C)(C)[C@@H]1CCC(C)=C[C@@H]21` [THC (pure), Δ9-tetrahydrocannabinol], the values for the IC50 against CYP3A4 [1], against CYP2C9 [2] and on CYP3A4 [6] were 23.6 µM, 0.081 µM and 26.1 ± 6.78 µM, respectively. The figures for the IC50 at 15 min at CYP2C9 [3] and at CYP2C9 [5] were 6.9 µM and 73.3 µM, respectively. On CYP2C9 [4], the Ki was 1.5 µM. Further, the fraction unbound in data set [7] is recorded as 0.05.

Consider `C=C(C)[C@@H]1CCC(C)=C[C@H]1c1c(O)cc(CCCCC)cc1O` [CBD (pure), cannabidiol], for which the IC50 at 15 min was 47 µM on CYP2C9 [3] and greater than 100 µM at CYP2C9 [5]. In data set [7], the fraction unbound is on record as 0.12.
